The record followed here is US12448352B2, “Beta adrenergic agonist and methods of using the same” (Curasen Therapeutics, Inc., priority 2019, dated 2025).

The nature of data set [1]: Microsomal stability (rat). It is filed as in vitro ADME. The settings on record: rat liver microsomes 0.5 mg/mL; read-out: Microsomal stability (in vitro CLint), Rat. The procedure:
(§1) The master solution was prepared as follows.
(§2) Two separate experiments were performed as follows:
(§3) With NADPH: 10 μL of 20 mg/mL liver microsomes and 40 μL of 10 mM NADPH were added to the incubations. The final concentrations of microsomes and NADPH were 0.5 mg/mL and 1 mM, respectively.
(§4) Without NADPH: 10 μL of 20 mg/mL liver microsomes and 40 μL of ultra-pure H2O were added to the incubations. The final concentration of microsomes was 0.5 mg/mL.
(§5) The reaction was started with the addition of 4 μL of 3, 10, 30 and 100 μM test compound solution or control compound solution at the final concentration of 0.03, 0.1, 0.3 and 1 μM and carried out at 37° C.
(§6) Aliquots of 50 μL were taken from the reaction solution at 0, 15, 30, 45 and 60 min. The reaction was stopped by the addition of 4 volumes of cold acetonitrile with IS (100 nM alprazolam, 200 nM labetalol, 200 nM caffeine and 2 μM ketoprofen). Samples were centrifuged at 3, 220 g for 40 minutes. Aliquot of 100 μL of the supernatant was mixed with 100 μL of ultra-pure H2O and then used for LC-MS/MS analysis. […]
(§7) Peak areas were determined from extracted ion chromatograms. The slope value, k, was determined by linear regression of the natural logarithm of the remaining percentage of the parent drug vs. incubation time curve.
(§8) The in vitro half-life (in vitro t1/2) was determined from the slope value: […]

Data set [2] is described as follows: Microsomal stability (human). The class given is in vitro ADME. Particulars: human liver microsomes 0.5 mg/mL; read-out: Microsomal stability (in vitro CLint), Human. The procedure:
as §1, §2, §3, §4, §5, §6, §7, §8
Background: Liver microsomes are a subcellular fraction often used to study metabolism.

A short description of data set [3]: Microsomal stability (dog). The class given is in vitro ADME. Particulars: dog liver microsomes 0.5 mg/mL; read-out: Microsomal stability (in vitro CLint), Dog. The procedure:
as §1, §2, §3, §4, §5, §6, §7, §8

Data set [4] in a line: Rat pharmacokinetic study (plasma). The class given is in vivo, male SD rats. The settings on record: IV 1 mg/kg. The procedure:
The rat pharmacokinetics studies of exemplary compounds 03-3, 03-5, and 03-115 were conducted with male SD rats. These rats were typically about 6-8 weeks old, weighing 200 g to 300 g. Animals were fasted overnight and free access to food 4 hours after dosing. A required volume of vehicle was added to reach the target concentration of the test article and vehicle component to prepare for the dosing. The dosing vehicle was PEG400 or 30% PEG400 in saline for IV, or 0.5% methylcellulose in water for PO. For IV dosing, the animals were administered intravenously via tail vein. For PO dosing, the animals were administered via oral gavage. After dosing, blood sample was collected (˜0.2 mL per time point) through jugular vein or heart puncture. Blood of each sample was transferred into plastic micro centrifuge tubes containing EDTA-K2. Collection tubes with blood samples and anticoagulant were inverted several times for proper mixing of the tube contents and then placed on wet ice. The blood samples were centrifuged at 2000 g for 5 minutes at 4° C. to obtain plasma which was stored in a freezer at −75±15° C. prior to analysis. Samples were analyzed using LC-MS/MS. WinNonlin were used for pharmacokinetic calculations.

For another data set, the target named is T1, β2 adrenergic receptor (Homo sapiens, UniProt P07550).
T1 construct: expressed in transfected cells
T1 sequence (P07550 whole entry): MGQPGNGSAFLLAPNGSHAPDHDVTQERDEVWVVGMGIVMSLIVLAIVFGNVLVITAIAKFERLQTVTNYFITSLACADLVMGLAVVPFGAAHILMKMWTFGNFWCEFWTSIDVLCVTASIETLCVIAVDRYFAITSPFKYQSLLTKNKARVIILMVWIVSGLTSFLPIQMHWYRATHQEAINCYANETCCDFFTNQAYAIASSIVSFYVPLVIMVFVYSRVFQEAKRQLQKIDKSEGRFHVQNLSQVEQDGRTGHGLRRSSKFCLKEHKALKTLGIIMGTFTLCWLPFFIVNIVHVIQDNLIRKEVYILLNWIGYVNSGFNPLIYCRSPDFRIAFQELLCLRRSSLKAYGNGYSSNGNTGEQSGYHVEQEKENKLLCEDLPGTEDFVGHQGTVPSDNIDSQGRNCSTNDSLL
Nature of the data set: cAMP Gs dynamic HTRF assay, β2 expressing CHO cells. The class given is cell-based. As for the experimental part:
(§9) cAMP homogeneous time-resolved fluorescence (HTRF). Compound efficacy was determined using the cAMP Gs dynamic HTRF assay (Cisbio, catalog #62AM4PEC) largely following the manufacturer's instructions, also detailed below.
(§10) Compound preparation. […] Standard serial dilution curves were 10-point, 5-fold dilutions starting from a highest concentration of 10 μM. […] Assay plates were centrifuged at 500×g for 10 seconds. Compounds and IBMX were prepared at 2× final dose to compensate for addition of cells.
(§11) Cell preparation. […] Cells were harvested using assay PBS, counted manually by hemocytometer or by an automated cell counter, pelleted by centrifugation (200×g, 5 minutes) and resuspended in 37° C. […]
(§12) HTRF reagent addition, reading and data analysis. […] Plates were centrifuged again at 500×g for 10 seconds, and HTRF was measured using a Tecan Spark plate reader at 50 flashes per well. […] Potency estimates (EC50) were derived from the four-parameter nonlinear regression of the concentration-effect curve and an estimate of relative efficacy was determined by comparing the magnitude of the test compound HTRF signal window (min-max dose) with the signal window of the full agonist control, isoproterenol.

For another data set, the target named is T2, β1 adrenergic receptor (Homo sapiens, UniProt P08588).
T2 construct: expressed in transfected cells
T2 sequence (P08588 whole entry): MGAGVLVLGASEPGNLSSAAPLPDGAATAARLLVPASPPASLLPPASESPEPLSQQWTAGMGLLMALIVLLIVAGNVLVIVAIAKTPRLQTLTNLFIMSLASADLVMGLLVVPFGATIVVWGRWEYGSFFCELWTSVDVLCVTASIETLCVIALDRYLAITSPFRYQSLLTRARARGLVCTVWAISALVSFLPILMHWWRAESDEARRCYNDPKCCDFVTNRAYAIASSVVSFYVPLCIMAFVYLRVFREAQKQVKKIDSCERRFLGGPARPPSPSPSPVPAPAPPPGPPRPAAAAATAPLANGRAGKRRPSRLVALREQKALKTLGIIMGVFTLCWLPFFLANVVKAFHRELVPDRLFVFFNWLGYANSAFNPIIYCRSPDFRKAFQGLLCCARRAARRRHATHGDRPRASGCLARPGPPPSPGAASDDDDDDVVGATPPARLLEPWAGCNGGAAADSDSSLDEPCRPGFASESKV
Description: cAMP Gs dynamic HTRF assay, β1 expressing CHO cells. The class given is cell-based. As for the experimental part:
as §9, §10, §11, §12

pEC50: −log10 of the molar value.

As a reminder, the microsomal CLint is the capacity of the preparation to metabolise the compound, expressed as a volume cleared per time. In the case of `CC(C)(C)NC[C@H](O)c1cccc(C(F)(F)F)n1` [Compound 03-3], the microsomal CLint in data set [1] is 3.48 µL/min/mg; in data set [2], 3.49 µL/min/mg; in data set [3] it was 7.99 µL/min/mg. The molecule also yielded an AUClast in data set [4] of 546 ng·h/mL. In data set [4], this molecule had a Vss_obs of 2.92 L/kg.

Regarding `CC(C)(C)NC[C@H](O)c1cccc(C#N)n1` [Compound 03-5, (S)-6-(2-(tert-butylamino)-1-hydroxyethyl)picolinonitrile], the intrinsic metabolic clearance (microsomal CLint) in data set [1] is 2.53 µL/min/mg; in data set [2] it was 2.96 µL/min/mg; in data set [3], 4.32 µL/min/mg. This molecule also displayed a Vss_obs in data set [4] of 1.89 L/kg.

The pEC50 is the negative decadic logarithm of the EC50, by convention in mol/L. Regarding `COc1ccc(C[C@@H](C)NC[C@H](O)c2ccc(C3CC3)nc2C)cc1` [Compound 03-269], the pEC50 at β2 adrenergic receptor is greater than 8.00; on β1 adrenergic receptor, 7.00 to 8.00.
